Reference: US6821954B2, “Compounds and uses thereof in treating bone disorders” (Auckland UniServices Limited, priority 1997, dated 2004)
Bridge positions count the residues as written; N and C are the ends. Ends that are not written are not given here. Peptide text beside a SMILES is read from it.

Tests used:
[1] = tested on: neonatal mouse calvariae; assay: Bone resorption in bone organ culture (45Ca release); format: cell-based; conditions: for effect on basal bone resorption: 10^−8 M, calcium release, FIG. 6
Method: Bone resorption studies were carried out in neonatal mouse calvariae as described previously. Mice were injected subcutaneously with […] at 2 days of age, and hemicalvariae were dissected out four days later. Hemicalvariae were pre-incubated for 24 hours in medium 199 with 0.1% bovine serum albumin, then changed to fresh medium containing peptide or vehicle. Incubation was continued for a further 48 hours. There were 5-7 hemicalvariae in each group.

[2] = Catabolism of peptides in calvarial organ culture (pre-incubation, then test on osteoblast proliferation); format: in vitro ADME, mouse; conditions: for effect of pre-incubation for two hours on osteoblastic activity: pre-incubation in calvarial organ culture 2 hours; for effect of pre-incubation for two hours on osteoblastic activity / osteoblastic activity after pre-incubation for four or more hours: cell number or thymidine incorporation, FIG. 7; for osteoblastic activity after pre-incubation for four or more hours: pre-incubation in calvarial organ culture four or more hours; for ability to block amylin's stimulation of osteoblast proliferation after pre-incubation: pre-incubation with calvariae for six hours, FIG. 8
Method: To determine whether the various peptide fragments underwent significant catabolism in organ culture, they were incubated with calvariae before being added to osteoblast cultures. The organ cultures were set up using hemicalvariae from animals that had not be pretreated with ^45Ca. The fragments or vehicle were incubated with the calvariae for 2, 4, or 6 hours. Extracts of the media were removed then immediately added to osteoblast cultures for measurement of their effects on osteoblast proliferation, as described above.

[3] = tested on: fetal rat osteoblasts; assay: Osteoblast proliferation studies (cell counts and [3H]-thymidine incorporation) in osteoblast-like cell culture; format: cell-based; conditions: for effect on osteoblast cell number / effect on thymidine incorporation / proliferative effect on osteoblasts: 10^−9 M; for effect on osteoblast cell number: 24 h incubation; for effect on osteoblast cell number / effect on thymidine incorporation: FIG. 1; for effect on thymidine incorporation: last two hours of 24 h incubation; for EC50: read-out: half-maximally effective concentration on cell number; for proliferative effect on osteoblasts: cell number and thymidine incorporation; for concentration that completely blocked the proliferative effect of intact amylin: intact amylin 10^−9 M, cell number, FIG. 4; for blocking of the action of intact amylin on cell number / blocking of the action of intact amylin on thymidine incorporation: equimolar concentrations (10^−9 M), FIG. 5, FIG. 9; for blocking of the effects of amylin-(1-8) on osteoblast proliferation: equimolar concentrations
Method: Osteoblasts were isolated by collagenase-digestion from 20-day fetal rat calvariae. Calvariae were dissected aseptically and the frontal and parietal bones were stripped of their periosteum. only the central portions of the bones, free from sutrue tissue, were collected. The calvariae were treated twice with phosphate buffered saline (PBS) containing 3 mM EDTA (pH 7.4) for 15 minutes at 37E C. in a shaking water bath. After washing once in PBS, the calvariae were treated twice with 3 ml of 1 mg/ml collagenase for 7 minutes at 37E C. After discarding the supernatants from digestions I and II, the calvariae were treated a further twice with 3 ml of 2 mg/ml collagenase (30 mins, 37E C.). The supernatants of digestions III and IV were pooled, centrifuged, and the cells washed in Dulbecco's modified Eagle's medium (DME) with 10% fetal calf serum (FCS), suspended in further DME/10% FCS and placed in 75 cm^2 flasks. The cells were incubated under 5% CO2 and 95% air at 37E C. Confluence was reached by 5-6 days, at which time the cells were subcultured. After trypsinization using trypsin-EDTA (0.05%/0.53 mM), the cells were rinsed in minimum essential medium (MEM) with 5% FCS and resuspended in fresh medium, the seeded at 5×10^4 cells/ml in 24-well plates (0.5 ml cell suspension per well, i.e. 2.5×10^4 cells/well).
Proliferation studies (cell counts and thymidine incorporation) were performed in subconfluent cell populations, 24 h after subculturing cells were changed to serum-free medium with 0.1% bovine serum albumin plus the experimental compounds. Cell numbers were analysed 24 hours after addition of the peptide or vehicle by detaching cells form the wells by exposure to trypsin/EDTA (0.05%/0.53 mM) for approximately 5 minutes at 37E C. Counting was performed in a hemocytometer chamber. Results are expressed per well. [^3H]-Thymidine incorporation into actively-growing and growth-arrested cells was assessed by pulsing the cells with [^3H]-thymidine ([…]) two hours before the end of the experimental incubation. Experiments were terminated at 24 hours by washing the cells in MEM followed by the addition of 10% trichloroacetic acid. The precipitate was washed twice with ethanol:ether (3:1) and the wells desiccated at room temperature. The residue was redissolved in 2 M KOH at 55E C. for 30 mins, neutralized with 1 M HCI, and an aliquot counted for radioactivity. Results are expressed as dpm per well. For cell counts and thymidine incorporation, each experiment was performed at least four different times using experimental groups consisting of at least six wells.

[4] = tested on: osteoblasts; conditions: background section; cited from earlier work
[5] = listed as amylin (1-8) with 2 to 7 disulphide bond removed

Row | Molecule | effect on basal bone resorption [1] | effect of pre-incubation for two hours on osteoblastic activity [2] | osteoblastic activity after pre-incubation for four or more hours [2] | effect on osteoblast cell number [3] | effect on thymidine incorporation [3] | EC50 ([3]; 24 h, FIG. 2) [nM] | ability to block amylin's stimulation of osteoblast proliferation after pre-incubation [2] | concentration that completely blocked the proliferative effect of intact amylin [3] | proliferative effect on osteoblasts [3] | blocking of the action of intact amylin on cell number [3] | blocking of the action of intact amylin on thymidine incorporation [3] | also measured
1 | C[C@H](NC(=O)[C@@H]1CSSC[C@H](NC(=O)[C@@H](N)CCCCN)C(=O)N[C@@H](CC(N)=O)C(=O)N[C@@H]([C@@H](C)O)C(=O)N[C@@H](C)C(=O)N[C@@H]([C@@H](C)O)C(=O)N1)C(N)=O [Amylin-(1-8), Lysine-c[cysteine-asparagine-threonine-alanine-threonine-cysteine]-alanine-NH2] (H-KCNTATCA-NH2; disulfide 2-7) | lack of effect | no effect | completely lost their activity | consistently stimulated | consistently stimulated | 0.24 | – | – | – | – | – | effect on bone resorption, multiple additions ([1]; additions at 0, 8 and 30 hours, data not shown): did not influence bone resorption; effect on osteoblast cell number ([3]; listed as (1-8) fragment): stimulated both indices; effect on thymidine incorporation ([3]; listed as (1-8) fragment): stimulated both indices; concentrations at which the maximal effect on cell number was seen ([3]; 24 h, FIG. 2): ≥ 10^−9 M; maximal effect on cell number compared with intact amylin ([3]; 24 h, FIG. 2): not significantly less than that produced by the intact molecule; proliferative effect on osteoblasts ([3]; listed as Amylin (1-8)): active; proliferative effect on osteoblasts ([3]; listed as amylin-(1-8)): stimulates osteoblast proliferation
2 | Amylin-(8-37): rat amylin fragment 8-37; functions as an amylin antagonist in other tissues | – | – | – | – | – | – | decreased their ability to block | ≥ 10^−10 M | – | – | – | –
3 | Amylin: 37-amino acid peptide co-secreted with insulin from the beta cells of the pancreatic islets; rat amylin used | inhibited basal bone resorption | no effect | completely lost their activity | significant increase | significant increase | 0.02 | – | – | – | – | – | concentrations giving dose-dependent stimulation of osteoblast proliferation [4]: ≥ 10^−11 M
4 | CGRP-(8-37): the comparable (8-37) peptide fragment from CGRP (calcitonin gene-related peptide) (VTHRLAGLLSRSGGVVKNNFVPTNVGSKAF; ends and bridges not checked) | – | – | – | – | – | – | – | > 10^−8 M | – | – | – | –
5 | Reduced Amylin: Rat amylin reduced with dithiothreitol (2-7 disulphide removed) | – | – | – | – | – | – | decreased their ability to block | – | no proliferative effect | effective blockers | effective blockers | –
6 | Reduced amylin (1-8): amylin (1-8) reduced with dithiothreitol, 2 to 7 disulphide bond removed (KCNTATCA; Islet amyloid polypeptide reduced, disulphide removed; UniProt P12969 38-45, looked up, fragment) | – | – | – | – | – | – | – | – | no proliferative effect | effective blocker | effective blocker | blocking of amylin's inhibition of bone resorption ([1]; with amylin): did not act as a blocker; proliferative effect on osteoblasts [3, 5]: inactive; blocking of the effects of amylin-(1-8) on osteoblast proliferation [3]: effective blocker; blocking of the effects of amylin-(1-8) on osteoblast proliferation [3, 5]: blocks the activity of amylin (1-8)
